According to patent US12157730B2, “Heteroaryl derivative, method for producing same, and pharmaceutical composition comprising same as effective component” (VORONOI INC., priority 2019, dated 2024):
Several values for one entry are separate records, joined by “and”; a condition that tells them apart may be missing. Identical values can stand only once.

Assays:
[1] = molecular target: T1, Ba/F3 cell EGFR L858R/T790M (Homo sapiens, UniProt P00533, L858R/T790M); test: Ba/F3 cell proliferation suppression, EGFR L858R/T790M; assay type: cell-based; conditions: 72 hours after treatment, CellTiter-Glo
T1 construct: expressed in transfected cells; host or cells: Ba/F3
Description: (§1) The following experiment was carried out to evaluate the suppression activity of the compounds according to the present invention against proliferation of Ba/F3 and lung cancer cells which express EGFR mutations.
(§2) Of the cancer cell lines expressing the EGFR gene, A549 was cultured after adding 10% FBS (HyClone) to DMEM (Invitrogen), and RPMI-1640 (Invitrogen) with 10% FBS was used for the other cancer cells. For the Ba/F3 cells, RPMI-1640 with 10% FBS and 5 ng/ml IL-3 (R&D Systems) was used. The transduced Ba/F3 cells were cultured by adding 1 ug/ml puromycin (Invitrogen) to the same medium.
(§3) 24 hours before treatment with the compounds, 3000 to 5000 cells were distributed into each well of a white clear bottom 96 well plate (Corning). The compounds were diluted in dimethylsulfoxide (dilution ratio 3:1; 12 concentrations total) and injected 0.5 ul each for a final concentration of 0.3 nM to 50 um. As for measurement of live cells, 72 hours after treatment with the compounds, a CellTiter-Glo luminescent cell-viability reagent (Promega) was used to store the cells at room temperature for 10 minutes, followed by measurement of luminescence using a reader (SynergyNeo, Biotek). Each test was repeated three times.
(§4) The result was calculated as a cell growth ratio (%) compared to a control. The program GraphPad Prism version 5.0 was used to draw the graphs and calculate the GI50 values.

[2] = system: Ba/F3 cell EGFR Del19/T790M; test: Ba/F3 cell proliferation suppression, EGFR Del19/T790M; assay type: cell-based; conditions: 72 hours after treatment, CellTiter-Glo
Description: as §1, §2, §3, §4

Ba/F3 cell EGFR L858R = molecular target: T2, Ba/F3 cell EGFR L858R (Homo sapiens, UniProt P00533, L858R); test: Ba/F3 cell proliferation suppression, EGFR L858R; assay type: cell-based; conditions: 72 hours after treatment, CellTiter-Glo
T2 construct: expressed in transfected cells; host or cells: Ba/F3
Description: as §1, §2, §3, §4

[3] = molecular target: T3, Ba/F3 cell EGFR Exon20 ins NPH (Homo sapiens, UniProt P00533, INS773NPH); test: Ba/F3 cell proliferation suppression, EGFR Exon20 ins NPH; assay type: cell-based; conditions: for GI50: 72 hours after treatment, CellTiter-Glo; for Ba/F3 (NPH) Activity: GI50 class, Ba/F3 cell line with NPH inserted at Exon20 of EGFR, 72 hours
T3 construct: expressed in transfected cells; host or cells: Ba/F3
How it was run: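 72 h compound exposure, 0.3 nM–50 um (12 points, 3:1 dilution in DMSO); viability by CellTiter-Glo luminescence. Ba/F3 medium: RPMI-1640, 10% FBS, 5 ng/ml IL-3, 1 ug/ml puromycin for transduced cells. GI50 vs control, n=3.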

[4] = molecular target: T4, Ba/F3 cell EGFR Exon20 ins SVD (Homo sapiens, UniProt P00533, INS770SVD); test: Ba/F3 cell proliferation suppression, EGFR Exon20 ins SVD; assay type: cell-based; conditions: 72 hours after treatment, CellTiter-Glo
T4 construct: expressed in transfected cells; host or cells: Ba/F3
Description: as §1, §2, §3, §4

[5] = molecular target: T5, Ba/F3 cell EGFR Exon20 ins FQEA (Homo sapiens, UniProt P00533, INS763FQEA); test: Ba/F3 cell proliferation suppression, EGFR Exon20 ins FQEA; assay type: cell-based; conditions: 72 hours after treatment, CellTiter-Glo
T5 construct: expressed in transfected cells; host or cells: Ba/F3
Description: as §1, §2, §3, §4

[6] = molecular target: T6, Ba/F3 cell EGFR Exon20 ins ASV (Homo sapiens, UniProt P00533, INS769ASV); test: Ba/F3 cell proliferation suppression, EGFR Exon20 ins ASV; assay type: cell-based; conditions: 72 hours after treatment, CellTiter-Glo
T6 construct: expressed in transfected cells; host or cells: Ba/F3
Description: as §1, §2, §3, §4

[7] = molecular target: T7, Ba/F3 cell HER2 Exon20 ins YVMA (Homo sapiens, UniProt P04626, INS775YVMA); test: Ba/F3 cell proliferation suppression, HER2 Exon20 ins YVMA; assay type: cell-based; conditions: 72 hours after treatment, CellTiter-Glo
T7 construct: expressed in transfected cells; host or cells: Ba/F3
T7 sequence (P04626 with tags, fused parts or gaps INS775YVMA): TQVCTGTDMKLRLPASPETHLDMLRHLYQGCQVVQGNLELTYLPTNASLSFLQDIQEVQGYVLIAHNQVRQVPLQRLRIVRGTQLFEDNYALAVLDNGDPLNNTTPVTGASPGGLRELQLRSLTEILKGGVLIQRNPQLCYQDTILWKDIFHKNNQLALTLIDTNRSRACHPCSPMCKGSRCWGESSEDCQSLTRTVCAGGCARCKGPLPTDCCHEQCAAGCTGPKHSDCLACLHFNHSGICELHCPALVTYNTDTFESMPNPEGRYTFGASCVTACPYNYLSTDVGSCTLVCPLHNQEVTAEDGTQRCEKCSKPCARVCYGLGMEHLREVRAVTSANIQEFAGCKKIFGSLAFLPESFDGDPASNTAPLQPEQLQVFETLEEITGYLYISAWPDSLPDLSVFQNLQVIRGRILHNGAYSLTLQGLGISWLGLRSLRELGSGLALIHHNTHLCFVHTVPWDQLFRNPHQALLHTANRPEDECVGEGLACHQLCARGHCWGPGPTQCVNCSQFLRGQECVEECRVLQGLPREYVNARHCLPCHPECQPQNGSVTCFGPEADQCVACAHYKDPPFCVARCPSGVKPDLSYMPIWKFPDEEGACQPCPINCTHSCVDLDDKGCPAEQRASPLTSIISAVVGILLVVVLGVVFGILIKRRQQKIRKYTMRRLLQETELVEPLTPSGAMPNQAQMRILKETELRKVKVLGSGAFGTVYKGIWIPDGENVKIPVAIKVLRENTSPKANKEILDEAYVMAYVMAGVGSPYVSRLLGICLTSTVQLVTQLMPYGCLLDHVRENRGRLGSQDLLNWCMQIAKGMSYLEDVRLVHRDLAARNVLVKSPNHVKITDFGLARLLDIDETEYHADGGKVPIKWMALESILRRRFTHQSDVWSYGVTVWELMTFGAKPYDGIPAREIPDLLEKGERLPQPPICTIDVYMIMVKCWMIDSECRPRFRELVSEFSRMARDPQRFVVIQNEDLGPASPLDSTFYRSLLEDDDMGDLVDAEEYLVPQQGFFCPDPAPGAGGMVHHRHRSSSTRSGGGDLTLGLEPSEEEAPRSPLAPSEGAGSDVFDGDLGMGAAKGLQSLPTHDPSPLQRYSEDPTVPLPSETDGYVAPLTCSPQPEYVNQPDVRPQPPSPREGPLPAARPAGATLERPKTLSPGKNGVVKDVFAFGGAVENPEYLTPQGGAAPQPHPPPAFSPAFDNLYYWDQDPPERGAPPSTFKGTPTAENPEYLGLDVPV
Description: as §1, §2, §3, §4

Ba/F3 cell naive = test: Ba/F3 cell proliferation suppression, naive; assay type: cell-based; conditions: Mus musculus, BaF3; 72 hours after treatment, CellTiter-Glo
Description: as §1, §2, §3, §4

PC9GR = test: Lung cancer cell proliferation suppression, PC9GR; assay type: cell-based; conditions: 72 hours after treatment, CellTiter-Glo
Description: as §1, §2, §3, §4

H1975 = test: Lung cancer cell proliferation suppression, H1975; assay type: cell-based; conditions: Homo sapiens, NCI-H1975; 72 hours after treatment, CellTiter-Glo
Description: as §1, §2, §3, §4

PC9 = test: Lung cancer cell proliferation suppression, PC9; assay type: cell-based; conditions: Homo sapiens, PC-9; 72 hours after treatment, CellTiter-Glo
Description: as §1, §2, §3, §4

[8] = system: scanMAX kinase panel (EGFR mutant, ERBB2, ERBB4); test: DiscoverX (eurofin) KINOMEscan (scanMAX platform) kinase profiling; assay type: binding; conditions: for suppression activity against the EGFR mutant and ERBB2 and ERBB4: KINOMEscan scanMAX kinase profiling
From the text: It was confirmed that the above example compounds had high selectivity against EGFR series genes. Accordingly, these can be useful in the treating of cancers wherein this kinase is expressed. In particular, as they have substantially outstanding lung cancer cell line proliferation suppression, they can be useful in the treatment of lung cancer, breast cancer, and brain cancer.

Row | GI50 [1] | GI50 [2] | GI50 (Ba/F3 cell EGFR L858R) | GI50 [3] | Ba/F3 (NPH) Activity [3] | GI50 [4] | GI50 [5] | GI50 [6] | GI50 [7] | GI50 (Ba/F3 cell naive) | GI50 (PC9GR) | GI50 (H1975) | GI50 (PC9) | % inhibition of scanMAX Kinase profiling ([8]; EGFR(E746-A750del)) | % inhibition of scanMAX Kinase profiling ([8]; EGFR(G719C)) | % inhibition of scanMAX Kinase profiling ([8]; EGFR(G719S)) | % inhibition of scanMAX Kinase profiling ([8]; EGFR(L747-E749del, A750P)) | % inhibition of scanMAX Kinase profiling ([8]; EGFR(L747-T751del.Sins)) | % inhibition of scanMAX Kinase profiling ([8]; EGFR(L858R.T790M)) | suppression activity against the EGFR mutant and ERBB2 and ERBB4 [8] | Compound | also measured
1 | < 0.05 µM | < 0.05 µM | < 0.05 µM | < 0.05 µM | A (GI50 < 50 nM) | < 0.05 µM | < 0.05 µM | < 0.05 µM | < 0.05 µM | 0.5 to 5 µM | 7 nM | 1 nM | 1 nM | 89% | 100% | 100% | 98% | 100% | 98% | high suppression activity | C=CC(=O)Nc1cc(Nc2cc(N3OCC[C@@H]3c3cc(F)cc(F)c3)ncn2)c(OC)cc1N1CCC(N2CCN(CC)CC2)CC1 [Example 236, N-(5-((6-((R)-3-(3,5-difluorophenyl)isoxazolidine-2-yl)pyrimidine-4-yl)amino)-2-(4-(4-ethylpiperazine-1-yl)piperidine-1-yl)-4-methoxyphenyl) acrylamide] | % inhibition of scanMAX Kinase profiling ([8]; EGFR(L858R)): 100%; % inhibition of scanMAX Kinase profiling ([8]; EGFR(L861q)): 98%; % inhibition of scanMAX Kinase profiling ([8]; EGFR(S752-I759del)): 89%; % inhibition of scanMAX Kinase profiling ([8]; EGFR(T790M)): 100%; % inhibition of scanMAX Kinase profiling ([8]; ERBB2): 100%; % inhibition of scanMAX Kinase profiling ([8]; ERBB4): 100%
2 | < 0.05 µM | < 0.05 µM | < 0.05 µM | < 0.05 µM | A (GI50 < 50 nM) | < 0.05 µM | < 0.05 µM | < 0.05 µM | < 0.05 µM | 0.5 to 5 µM | 12 nM | 1 nM | 1 nM | 50% and 100% | 100% | 100% and 99% | 99% and 98% | 100% and 96% | 96% and 98% | high suppression activity | C=CC(=O)Nc1cc(Nc2cc(N3OCC[C@@H]3c3cc(F)cc(F)c3)ncn2)c(OC)cc1N1CCC(N(C)C)CC1 [Example 241, N-(5-((6-((R)-3-(3,5-difluorophenyl)isoxazolidine-2-yl)pyrimidine-4-yl)amino)-2-(4-(dimethylamino)piperidine-1-yl)-4-methoxyphenyl) acrylamide] | % inhibition of scanMAX Kinase profiling ([8]; EGFR(L861q)): 100% and 98%; % inhibition of scanMAX Kinase profiling ([8]; EGFR(S752-I759del)): 100% and 95%; % inhibition of scanMAX Kinase profiling ([8]; EGFR(T790M)): 100%; % inhibition of scanMAX Kinase profiling ([8]; ERBB2): 100%; % inhibition of scanMAX Kinase profiling ([8]; ERBB4): 100% and 94%
3 | < 0.05 µM | 0.05 to 0.5 µM | < 0.05 µM | < 0.05 µM | A (GI50 < 50 nM) | < 0.05 µM | < 0.05 µM | < 0.05 µM | < 0.05 µM | 0.5 to 5 µM | 23 nM | 4 nM | 1 nM | – | – | – | – | – | – | high suppression activity | C=CC(=O)Nc1cc(Nc2cc(N3OCC[C@@H]3c3cc(F)cc(F)c3)ncn2)c(OC)cc1N1CC[C@@H](N(C)C)C1 [Example 242, N-(5-((6-((R)-3-(3,5-difluorophenyl)isoxazolidine-2-yl)pyrimidine-4-yl)amino)-2-((R)-3-(dimethylamino)pyrolidine-1-yl)-4-methoxyphenyl) acrylamide] | –
